# Several values for one entry are separate records, joined by “and”; a condition that tells them apart may be missing. Identical values can stand only once. Like-named read-outs stand apart in the source and are kept apart here.
# Tests used:
# gpH1R (ileum) = gpH1R (ileum) (Cavia porcellus, UniProt P31389); assay: Organ bath study on isolated guinea pig ileum
# gpH2R (atrium) [1] = target: T1, gpH2R (atrium) (Cavia porcellus, UniProt P47747); assay: Organ bath study on isolated guinea pig right atrium; details: for Emax gpH2R: maximal response relative to maximal increase in heart rate induced by histamine (Emax=1.00)
# T1 sequence (P47747 whole entry): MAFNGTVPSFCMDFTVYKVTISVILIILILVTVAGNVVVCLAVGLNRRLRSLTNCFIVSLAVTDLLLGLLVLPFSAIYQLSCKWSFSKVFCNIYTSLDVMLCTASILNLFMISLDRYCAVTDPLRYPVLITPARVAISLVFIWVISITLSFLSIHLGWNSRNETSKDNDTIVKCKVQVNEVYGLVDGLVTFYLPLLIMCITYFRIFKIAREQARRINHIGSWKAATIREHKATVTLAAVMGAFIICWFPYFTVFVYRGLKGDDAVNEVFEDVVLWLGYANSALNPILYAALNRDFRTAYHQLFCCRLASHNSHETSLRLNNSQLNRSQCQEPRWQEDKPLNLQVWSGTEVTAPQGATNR
# hH3R = hH3R (Homo sapiens, UniProt Q9Y5N1); assay: [35S]GTPγS binding assay, Sf9 membranes; format: biochemical
# hH3R, sequence (Q9Y5N1 whole entry): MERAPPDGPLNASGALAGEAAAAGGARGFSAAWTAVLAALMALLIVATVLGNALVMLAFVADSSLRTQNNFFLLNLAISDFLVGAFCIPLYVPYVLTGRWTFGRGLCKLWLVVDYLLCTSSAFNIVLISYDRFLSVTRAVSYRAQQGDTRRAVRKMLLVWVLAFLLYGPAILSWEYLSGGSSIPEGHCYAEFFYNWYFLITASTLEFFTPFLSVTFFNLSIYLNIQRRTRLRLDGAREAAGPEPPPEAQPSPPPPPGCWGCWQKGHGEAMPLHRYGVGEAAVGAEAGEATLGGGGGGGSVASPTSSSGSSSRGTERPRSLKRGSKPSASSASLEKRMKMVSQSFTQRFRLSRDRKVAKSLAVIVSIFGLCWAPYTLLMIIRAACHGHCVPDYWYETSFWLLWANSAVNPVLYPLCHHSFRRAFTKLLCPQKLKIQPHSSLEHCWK
# hH2R = hH2R (Homo sapiens, UniProt P25021+P63092); assay: [35S]GTPγS binding assay, Sf9 membranes; format: biochemical
# hH4R = hH4R (Homo sapiens, UniProt Q9H3N8); assay: [35S]GTPγS binding assay, Sf9 membranes; format: biochemical
# gpH2R (atrium) [2] = target: T1, gpH2R (atrium); details: guinea-pig right atrium, cited from earlier work
# [3] = [35S]GTPγS binding, maximal response relative to histamine (Emax=1.00)
# gpH1R (ileum), sequence (P31389 whole entry): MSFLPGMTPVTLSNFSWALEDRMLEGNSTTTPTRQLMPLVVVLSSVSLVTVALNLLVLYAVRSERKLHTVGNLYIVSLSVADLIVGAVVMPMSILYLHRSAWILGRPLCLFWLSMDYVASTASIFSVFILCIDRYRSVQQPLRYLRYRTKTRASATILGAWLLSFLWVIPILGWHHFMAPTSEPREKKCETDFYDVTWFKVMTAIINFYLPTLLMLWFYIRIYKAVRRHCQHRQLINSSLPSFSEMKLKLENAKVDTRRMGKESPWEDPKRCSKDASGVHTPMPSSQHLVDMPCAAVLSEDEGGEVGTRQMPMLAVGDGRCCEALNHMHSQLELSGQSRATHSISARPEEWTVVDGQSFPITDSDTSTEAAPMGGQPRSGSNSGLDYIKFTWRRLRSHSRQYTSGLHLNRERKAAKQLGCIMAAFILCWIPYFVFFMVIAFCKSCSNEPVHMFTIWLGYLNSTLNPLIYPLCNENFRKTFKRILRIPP
Kb (gpH1R (ileum)) [nM],EC50 (gpH2R (atrium) [1]) [nM],Structure (SMILES),Emax gpH2R (gpH2R (atrium) [1]),also measured
9.33,234,N=C(NCCCCCCCCCCCCN)NCCCc1cnc(N)s1 [compound 122],0.90±0.05,
16600,4680,"N=C(NCCCN)NCCCc1c[nH]cn1 [compound 115, 1‐(3‐Aminopropyl)‐3‐[3‐(1H‐imidazol‐4‐yl)propyl]guanidine]",0.88±0.05,
6310,380,N=C(NCCCCCCN)NCCCc1c[nH]cn1 [compound 117],0.79±0.01,
1000,295,N=C(NCCCCCCCCCCNC(N)=O)NCCCc1c[nH]cn1 [compound 136],0.96±0.01,Emax hH3R (hH3R): −1.20±0.15; Emax hH2R (hH2R): 0.45 and 0.45±0.03
50.1,38.9,N=C(N)NCCCCCCCCNC(=N)NCCCc1cnc(N)s1 [compound 129],1.00±0.01,
214,135,Cc1nc(N)sc1CCCNC(=N)NCCCCCCCCNC(=N)N [compound 128],0.72±0.02,
251,27.5,N=C(N)NCCCCCCCCCCNC(=N)NCCCc1c[nH]cn1 [compound 126],0.80±0.02,
6030,288,N=C(NCCCCNC(N)=O)NCCCc1c[nH]cn1 [compound 133],1.03±0.03,
1620,20.4,N=C(N)NCCCCCCCCNC(=N)NCCCc1c[nH]cn1 [compound 125],0.83 and 0.83±0.07,
3800,7410,N=C(NCCCCN)NCCCc1c[nH]cn1 [compound 116],0.68±0.02,
> 31600,269000,"NC(=O)NCCCc1c[nH]cn1 [compound 145, 1‐[3‐(1H‐Imidazol‐4‐yl)propyl]urea]",0.58±0.02,
1290,309,N=C(NCCCCCCCCN)NCCCc1c[nH]cn1 [compound 118],0.75±0.10,
112,138,N=C(NCCCCCCCCCCCCN)NCCCc1c[nH]cn1 [compound 120],1.00 and 1.00±0.06,Emax hH3R (hH3R): 0; Kb (hH3R): 191 nM; Emax hH4R (hH4R): 0; Kb (hH4R): 372000 nM; Emax hH2R (hH2R): 0.66±0.01
8.71,117,N=C(N)NCCCCCCCCCCCCNC(=N)NCCCc1cnc(N)s1 [compound 131],0.85±0.05,
,,"NCCc1c[nH]cn1 [compound 1, histamine, reference compound]",1.00,Emax hH3R (hH3R; [3]): 1.00; Emax hH4R (hH4R; [3]): 1.00; Emax hH2R (hH2R; [3]): 1.00
676,389,N=C(NCCCCCCCCCCN)NCCCc1c[nH]cn1 [compound 119],0.78±0.01,
9120,2450,N=C(NCCCNC(N)=O)NCCCc1c[nH]cn1 [compound 132],0.89±0.03,
,11000,NC(=S)NCCCc1c[nH]cn1 [compound 142],0.27±0.02,
3890,7410,"CSC(=N)NCCCc1c[nH]cn1 [compound 143, N‐[3‐(1H‐Imidazol‐4‐yl)propyl]‐S‐methylisothiourea]",0.45 and 0.45±0.05,rel. potency (gpH2R (atrium) [2]; relative to histamine): 0.1; maximum response (gpH2R (atrium) [2]): 0.23
60.3,56.2,N=C(N)NCCCCCCCCCCCCNC(=N)NCCCc1c[nH]cn1 [compound 127],0.77±0.07,Emax hH3R (hH3R): 0; Kb (hH3R): 66.1 nM; Emax hH4R (hH4R): 0; Kb (hH4R): 417000 nM; Emax hH2R (hH2R): 0.45±0.03
2630,50.1,N=C(N)NCCCCNC(=N)NCCCc1c[nH]cn1 [compound 123],1.03 and 1.03±0.03,
174,95.5,Cc1nc(N)sc1CCCNC(=N)NCCCCCCCCCCCCNC(=N)N [compound 130],0.90±0.04,Emax hH3R (hH3R): −1.21±0.10; Emax hH2R (hH2R): 0.22 and 0.22±0.01
7410,676,N=C(NCCCCCCNC(N)=O)NCCCc1c[nH]cn1 [compound 134],0.96±0.03,
70.8,324,Cc1nc(N)sc1CCCNC(=N)NCCCCCCCCCCCCN [compound 121],0.71±0.03,Emax hH3R (hH3R): −0.69±0.03; Emax hH4R (hH4R): 0; Kb (hH4R): 178000 nM; Emax hH2R (hH2R): 0.22 and 0.22±0.01
1410,182,N=C(NCCCCCCCCNC(N)=O)NCCCc1c[nH]cn1 [compound 135],0.94±0.05,
933,21.4,N=C(N)NCCCCCCNC(=N)NCCCc1c[nH]cn1 [compound 124],0.94±0.02,

Structure (SMILES),Kb (gpH1R (ileum)) [nM],EC50 (gpH2R (atrium) [1]) [nM],Emax gpH2R (gpH2R (atrium) [1]),also measured
O=C(NCCCc1c[nH]cn1)NC(=O)c1ccccc1 [compound 144],9550,24000,0.15±0.03,
"O=C(NC(=S)NCCCc1c[nH]cn1)c1ccccc1 [compound 141, N‐{[3‐(1H‐Imidazol‐4‐yl)propyl]thiocarbamoyl}benzamide]",,18600,0.43±0.01,

# — article PMC6401531 (ChemistryOpen, 2019)
